Experiments:
[1] = target: T1, UDP-glucuronosyltransferase 1A8 (Homo sapiens, UniProt Q9HAW9); experiment: Ratio of Ki to Km for human recombinant UGT1A8 expressed in baculovirus-infected insect cells; assay type: ADME; settings: recombinant enzyme
T1 sequence (Q9HAW9 whole entry): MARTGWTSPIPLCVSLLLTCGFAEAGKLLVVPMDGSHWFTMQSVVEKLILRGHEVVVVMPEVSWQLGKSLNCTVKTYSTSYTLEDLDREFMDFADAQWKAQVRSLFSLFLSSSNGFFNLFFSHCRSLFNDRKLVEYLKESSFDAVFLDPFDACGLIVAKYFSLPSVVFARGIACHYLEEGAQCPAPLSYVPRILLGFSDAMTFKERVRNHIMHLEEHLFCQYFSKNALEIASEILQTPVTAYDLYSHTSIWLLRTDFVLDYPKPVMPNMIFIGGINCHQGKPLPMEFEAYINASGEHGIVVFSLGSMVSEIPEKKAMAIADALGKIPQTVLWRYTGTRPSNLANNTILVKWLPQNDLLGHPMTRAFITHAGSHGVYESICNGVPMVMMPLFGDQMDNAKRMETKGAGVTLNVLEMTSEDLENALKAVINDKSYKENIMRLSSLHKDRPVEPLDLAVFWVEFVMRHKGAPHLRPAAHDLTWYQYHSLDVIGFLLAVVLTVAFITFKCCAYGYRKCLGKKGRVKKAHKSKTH

[2] = Drug metabolism in human intestinal microsomes assessed as glucuronidation after 5 mins by Michaelis-Menten plot analysis in presence of UDPGA; assay type: ADME, Intestine, Microsome
[3] = Substrate inhibition in human intestinal microsomes after 5 mins by Michaelis-Menten plot analysis in presence of UDPGA; assay type: ADME, Intestine, Microsome
[4] = target: T2, UDP-glucuronosyltransferase 1A6 (Homo sapiens, UniProt P19224); experiment: Activity of human recombinant UGT1A6 expressed in baculovirus-infected insect cells assessed as enzyme-mediated glucuronidation per mg of protein after 10 mins in presence of UDPGA; assay type: ADME
T2 sequence (P19224 whole entry): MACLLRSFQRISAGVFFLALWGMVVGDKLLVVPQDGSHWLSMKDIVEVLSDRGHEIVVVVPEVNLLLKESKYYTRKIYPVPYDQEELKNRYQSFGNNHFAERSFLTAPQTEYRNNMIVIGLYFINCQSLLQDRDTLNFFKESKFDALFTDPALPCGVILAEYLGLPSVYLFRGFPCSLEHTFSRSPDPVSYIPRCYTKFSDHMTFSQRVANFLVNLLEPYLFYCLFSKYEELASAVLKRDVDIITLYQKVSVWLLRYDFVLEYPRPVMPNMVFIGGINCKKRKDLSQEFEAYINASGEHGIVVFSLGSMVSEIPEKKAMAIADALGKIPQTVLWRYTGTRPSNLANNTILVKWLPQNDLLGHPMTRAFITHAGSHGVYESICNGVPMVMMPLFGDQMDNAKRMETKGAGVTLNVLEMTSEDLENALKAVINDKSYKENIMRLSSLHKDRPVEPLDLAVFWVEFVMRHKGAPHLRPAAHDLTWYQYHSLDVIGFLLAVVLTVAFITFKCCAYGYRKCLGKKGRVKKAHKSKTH

[5] = target: T3, UDP-glucuronosyltransferase 2B7 (Homo sapiens, UniProt P16662); experiment: Activity of human recombinant UGT2B7 expressed in baculovirus-infected insect cells assessed as enzyme-mediated glucuronidation per mg of protein after 10 mins in presence of UDPGA; assay type: ADME
T3 sequence (P16662 whole entry): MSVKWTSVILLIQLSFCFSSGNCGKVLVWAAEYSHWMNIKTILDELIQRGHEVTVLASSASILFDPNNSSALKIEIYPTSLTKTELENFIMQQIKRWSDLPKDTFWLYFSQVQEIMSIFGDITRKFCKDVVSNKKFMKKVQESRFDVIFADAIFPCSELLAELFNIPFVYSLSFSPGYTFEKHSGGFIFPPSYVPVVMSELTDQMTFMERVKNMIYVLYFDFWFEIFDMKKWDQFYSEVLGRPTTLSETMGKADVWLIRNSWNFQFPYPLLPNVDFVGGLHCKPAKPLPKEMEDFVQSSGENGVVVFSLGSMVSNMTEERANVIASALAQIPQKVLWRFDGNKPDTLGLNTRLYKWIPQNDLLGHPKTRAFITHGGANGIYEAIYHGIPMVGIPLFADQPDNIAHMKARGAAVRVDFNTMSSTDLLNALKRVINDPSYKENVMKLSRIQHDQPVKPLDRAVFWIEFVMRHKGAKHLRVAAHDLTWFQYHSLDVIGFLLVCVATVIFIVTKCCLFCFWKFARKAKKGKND

[6] = target: T4, UDP-glucuronosyltransferase 2B17 (Homo sapiens, UniProt O75795); experiment: Activity of human recombinant UGT2B17 expressed in baculovirus-infected insect cells assessed as enzyme-mediated glucuronidation per mg of protein after 10 mins in presence of UDPGA; assay type: ADME
T4 sequence (O75795 whole entry): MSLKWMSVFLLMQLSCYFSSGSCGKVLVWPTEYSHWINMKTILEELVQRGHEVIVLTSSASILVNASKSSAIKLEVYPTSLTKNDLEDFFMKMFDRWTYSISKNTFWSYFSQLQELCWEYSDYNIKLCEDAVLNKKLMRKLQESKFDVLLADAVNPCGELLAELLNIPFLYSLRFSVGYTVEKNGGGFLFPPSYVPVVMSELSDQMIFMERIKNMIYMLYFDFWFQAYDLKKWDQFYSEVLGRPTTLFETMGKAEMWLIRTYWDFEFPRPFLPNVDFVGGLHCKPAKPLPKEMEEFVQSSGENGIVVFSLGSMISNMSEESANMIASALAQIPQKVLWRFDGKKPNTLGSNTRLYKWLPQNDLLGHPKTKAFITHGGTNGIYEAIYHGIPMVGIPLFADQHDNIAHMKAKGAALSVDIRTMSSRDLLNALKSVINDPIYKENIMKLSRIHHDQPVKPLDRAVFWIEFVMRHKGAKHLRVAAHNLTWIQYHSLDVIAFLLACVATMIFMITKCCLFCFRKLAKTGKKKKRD

Liver microsome = experiment: Drug metabolism in human liver microsomes assessed as glucuronidation per mg of protein after 10 mins by Michaelis-Menten plot analysis in presence of UDPGA and absence of fatty acid free BSA; assay type: ADME
[7] = Drug metabolism in human intestinal microsomes assessed as glucuronidation at 30 uM after 5 mins by LC-MS/MS analysis relative to vehicle-treated control in presence of beta-estradiol and UDPGA; assay type: ADME, Intestine, Microsome; settings: with beta-estradiol, read-out: Drug metabolism
[8] = Fraction unbound in human liver microsomes at 1 to 250 uM after 10 mins by ultrafiltration method in presence of 0.1% fatty acid free BSA; assay type: ADME
[9] = Fraction unbound in human liver microsomes at 1 to 250 uM after 10 mins by ultrafiltration method in presence of 0.5% fatty acid free BSA; assay type: ADME
[10] = Fraction unbound in incubation mixture containing human recombinant UGT1A9 at 1 to 250 uM after 10 mins by ultrafiltration method in absence of fatty acid free BSA
[11] = Drug metabolism in human liver microsomes assessed as glucuronidation after 10 mins by Michaelis-Menten plot analysis in presence of UDPGA and 2% fatty acid free BSA; assay type: ADME; settings: read-out: Km(unbound)

- Ratio [1]: 30
- Km at 5 min [2]: 27.3 µM
- Ki [3]: 463 µM
- Drug metabolism [4]: < 0.01 nmol/min/mg
- Drug metabolism [5]: < 0.01 nmol/min/mg
- Drug metabolism [6]: < 0.01 nmol/min/mg
- Vmax (Liver microsome): 3.75 nmol/min/mg
- activity at 5 min, 30 µM [7]: 22.6%
- fraction unbound at 10 min, up to 250 µM [8]: 0.72
- fraction unbound at 10 min, up to 250 µM [9]: 0.517
- Km at 10 min [11]: 17.6 µM
Compound: COc1ccc(C(=O)Nc2cccc(O)c2NC(=O)c2ccc(N3CCCN(C)CC3)cc2)cc1.O=C(O)CCC(=O)O
- Fu [10]: 0.879

Source: ChEMBL document CHEMBL3526122, “Identification of UDP-glucuronosyltransferases responsible for the glucuronidation of darexaban, an oral factor Xa inhibitor, in human liver and intestine” (Drug Metab Dispos, 2012)
